Source: US8062995B2, “Dioxazine-substituted arylamides” (Bayer CropScience AG, priority 2005, dated 2011)

Assays:
[1] = test system: larvae of the mustard beetle (Phaedon cochleariae); assay: Phaedon test (sprayed Chinese cabbage discs); assay type: in vivo; conditions: for Kill rate after 7d in %: 100 g/ha
Experimental: (§1) Phaedon Test Solvents: 78 parts by weight of acetone • • 1.5 parts by weight of dimethylformamide Emulsifier: 0.5 part by weight of alkylaryl polyglycol ether To produce a suitable preparation of active compound, 1 part by weight of active compound is mixed with the stated amounts of solvents and emulsifier and the concentrate is diluted with emulsifier-containing water to the desired concentration. Discs of Chinese cabbage (Brassica pekinensis) are sprayed with an active compound preparation of the desired concentration and, after drying, populated with larvae of the mustard beetle (Phaedon cochleariae). After the desired period of time, the activity in % is determined. 100% means that all beetle larvae have been killed; 0% means that none of the beetle larvae have been killed.

[2] = test system: green peach aphid (Myzus persicae); assay: Myzus test (MYZUPE spray treatment); assay type: in vivo; conditions: for Kill rate after 5d in %: 100 g/ha, spray treatment
Experimental: as §1, with “Myzus” for “Phaedon”, “Test (MYZUPE Spray Treatment)” for “Test”, “pekinensis), which are infested by all stages of the green peach aphid (Myzus persicae)” for “pekinensis)”, “concentration.” for “concentration and, after drying, populated with larvae of the mustard beetle (Phaedon cochleariae).”, “aphids” for “beetle larvae”

[3] = test system: caterpillars of the army worm (Spodoptera frugiperda); assay: Spodoptera frugiperda test (SPODFR spray treatment); assay type: in vivo; conditions: for Kill rate after 7d in %: 100 g/ha, spray treatment
Experimental: Spodoptera frugiperda Test (SPODFR Spray Treatment) Solvents: 78 parts by weight of acetone • • 1.5 parts by weight of dimethylformamide Emulsifier: 0.5 part by weight of alkylaryl polyglycol ether To produce a suitable preparation of active compound, 1 part by weight of active compound is mixed with the stated amounts of solvents and emulsifier and the concentrate is diluted with emulsifier-containing water to the desired concentration. Discs of maize leaves (Zea mays) are sprayed with an active compound preparation of the desired concentration and after drying populated with caterpillars of the army worm (Spodoptera frugiperda). After the desired period of time, the activity in % is determined. 100% means that all of the caterpillars have been killed; 0% means that none of the caterpillars have been killed.

[4] = logP determination by HPLC (reversed-phase C18), EEC Directive 79/831 Annex V.A8; assay type: physicochemical; conditions: HPLC reversed-phase C18, 43° C., acidic range pH 2.7
Experimental: The logP values given in the tables and Preparation Examples above are determined in accordance with EEC Directive 79/831 Annex V.A8 by HPLC (High Performance Liquid Chromatography) on a reversed-phase column (C 18). Temperature: 43° C. The determination by LC-MS in the acidic range is carried out at pH 2.7 using 0.1% aqueous formic acid and acetonitrile (contains 0.1% formic acid) as mobile phases; linear gradient from 10% acetonitrile to 95% acetonitrile. Calibration is carried out using unbranched alkan-2-ones (having 3 to 16 carbon atoms) with known logP values (determination of the logP values by the retention times using linear interpolation between two successive alkanones).

[5] = test system: Spodoptera frugiperda larvae; assay: Spodoptera frugiperda test (treatment by watering); assay type: in vivo; conditions: for Kill rate after 14d in %: 20 ppm, treatment by watering
Experimental: Spodoptera frugiperda Test Solvent: 7 parts by weight of dimethylformamide Emulsifier: 2 parts by weight of alkylaryl polyglycol ether To produce a suitable preparation of active compound, 1 part by weight of active compound is mixed with the stated amounts of solvent and emulsifier and the concentrate is diluted with water to the desired concentration. Maize plants (Zea mays) are watered with an active compound preparation of the desired concentration and infected with Spodoptera frugiperda larvae. After the desired period of time, the kill in % is determined. 100% means that all larvae have been killed; 0% means that none of the larvae have been killed.

[6] = test system: caterpillars of the diamondback moth (Plutella xylostella); assay: Plutella test (leaf dip); assay type: in vivo
Experimental: (§2) Plutella Test Solvent: 7 parts by weight of dimethylformamide Emulsifier: 2 parts by weight of alkylaryl polyglycol ether To produce a suitable preparation of active compound, 1 part by weight of active compound is mixed with the stated amounts of solvent and emulsifier and the concentrate is diluted with emulsifier-containing water to the desired concentration. Cabbages leaves (Brassica oleracea) are treated by being dipped into the active compound preparation of the desired concentration and populated with caterpillars of the diamondback moth (Plutella xylostella) while the leaves are still moist. After the desired period of time, the kill in % is determined. 100% means that all caterpillars have been killed; 0% means that none of the caterpillars have been killed.

[7] = test system: Spodoptera exigua, resistant strain; assay: Spodoptera exigua test; resistant strain; assay type: in vivo; conditions: for Kill rate after 7d in %: 20 ppm, resistant strain
Experimental: Spodoptera exigua Test; Resistant Strain
Solvent: 7 parts by weight of dimethylformamide
Emulsifier: 2 parts by weight of alkylaryl polyglycol ether
To produce a suitable preparation of active compound, 1 part by weight of active compound is mixed with the stated amounts of solvent and emulsifier and the concentrate is diluted with emulsifier-containing water to the desired concentration.
Cabbage leaves (Brassica oleracea) are treated by being dipped into the active compound preparation of the desired concentration and populated with caterpillars of the army worm (Spodoptera exigua, resistant strain) while the leaves are still moist.
After the desired period of time, the kill in % is determined. 100% means that all caterpillars have been killed; 0% means that none of the caterpillars have been killed.

[8] = test system: caterpillars of the army worm (Spodoptera exigua); assay: Spodoptera exigua test (leaf dip); assay type: in vivo
Experimental: as §2, with “Spodoptera exigua” for “Plutella”, “Cabbage” for “Cabbages”, “army worm (Spodoptera exigua)” for “diamondback moth (Plutella xylostella)”

[9] = test system: caterpillars of the cotton bollworm (Heliothis armigera); assay: Heliothis armigera test (leaf dip); assay type: in vivo
Experimental: as §2, with “Heliothis armigera” for “Plutella”, “Soya bean” for “Cabbages”, “(Glycine max.)” for “(Brassica oleracea)”, “cotton bollworm (Heliothis armigera)” for “diamondback moth (Plutella xylostella)”

logP [4] | Compound | activity in the Phaedon test (in words) [1] | Kill rate after 7d in % [1] [%] | activity in the Spodoptera frugiperda test, spray treatment (in words) [3] | Kill rate after 7d in % [3] [%] | further results
3.07 | O=C(Nc1c(Cl)cc(Cl)cc1C1=NOCCO1)c1cc(Cl)nn1-c1ncccc1Cl [Example I-1-2] | good activity | 100 | good activity | 100 | activity in the Myzus test, spray treatment (in words) [2]: good activity; Kill rate after 5d in % [2]: 80%
3.00 | Cc1cccc(C2=NOCCO2)c1NC(=O)c1cc(C(F)(F)F)nn1-c1ncccc1Cl [Example I-1-3] |  |  | good activity | 100 | activity in the Spodoptera frugiperda test, watering (in words) [5]: good activity; Kill rate after 14d in % [5]: 95%
2.59 | Cc1cccc(C2=NOCCO2)c1NC(=O)c1cc(Br)nn1-c1ncccc1Cl [Example I-1-4] |  |  | good activity | 100 | 
3.50 | Cc1cc(Cl)cc(C2=NOCCO2)c1NC(=O)c1cc(C(F)(F)F)nn1-c1ncccc1Cl [Example I-1-6] | good activity | 100 | good activity | 100 | activity in the Plutella test (in words) [6]: good activity; Kill rate after 7d in % ([6]; 20 ppm, 7 d): 100%; activity in the Spodoptera exigua test, resistant strain (in words) [7]: good activity; Kill rate after 7d in % [7]: 100%; activity in the Spodoptera frugiperda test, watering (in words) [5]: good activity; Kill rate after 14d in % [5]: 98%; activity in the Spodoptera exigua test (in words) [8]: good activity; Kill rate after 7d in % ([8]; 100 ppm): 100%
3.18 | Cc1cc(Br)cc(C2=NOCCO2)c1NC(=O)c1cc(Cl)nn1-c1ncccc1Cl [Example I-1-10] | good activity | 100 | good activity | 100 | activity in the Spodoptera exigua test, resistant strain (in words) [7]: good activity; Kill rate after 7d in % [7]: 100%; activity in the Spodoptera frugiperda test, watering (in words) [5]: good activity; Kill rate after 14d in % [5]: 90%; activity in the Spodoptera exigua test (in words) [8]: good activity; Kill rate after 7d in % ([8]; 20 ppm): 100%; activity in the Heliothis armigera test (in words) [9]: good activity; Kill rate after 7d in % ([9]; 20 ppm, 7 d): 100%
3.24 | Cc1cc(Br)cc(C2=NOCCO2)c1NC(=O)c1cc(Br)nn1-c1ncccc1Cl [Example I-1-12] | good activity | 100 | good activity | 100 | 
3.98 | O=C(Nc1c(Cl)cc(Cl)cc1C1=NOCCO1)c1cc(Br)nn1-c1c(Cl)cccc1Cl [Example I-1-13] | good activity | 100 |  |  | 
2.79 | Cc1cc(Cl)cc(C2=NOCCO2)c1NC(=O)c1cc(C(F)(F)F)nn1-c1ncccn1 [Example I-1-14] |  |  |  |  | 
2.80 | O=C(Nc1c(Cl)cc(Cl)cc1C1=NOCCO1)c1cc(C(F)(F)F)nn1-c1ncccn1 [Example I-1-15] |  |  |  |  | 
3.48 | O=C(Nc1c(Cl)cc(Cl)cc1C1=NOCCO1)c1cc(Br)cn1-c1ncccc1Cl [Example I-1-21] | good activity | 100 | good activity | 100 | 
3.50 | Cc1cc(Cl)cc(C2=NOCCO2)c1NC(=O)c1cc(Br)cn1-c1ncccc1Cl [Example I-1-25] | good activity | 83 | good activity | 83 | 
2.44 | Cc1cc(I)cc(C2=NOCCN2)c1NC(=O)c1cc(Cl)nn1-c1ncccc1Cl [Example I-1-26] | good activity | 100 | good activity | 100 | activity in the Myzus test, spray treatment (in words) [2]: good activity; Kill rate after 5d in % [2]: 100%
1.89 | O=C(Nc1c(Cl)cccc1C1=NOCCN1)c1cc(Br)nn1-c1ncccc1Cl [Example I-1-27] |  |  |  |  | 
1.83 | Cc1cccc(C2=NOCCN2)c1NC(=O)c1cc(Br)cn1-c1ncccc1Cl [Example I-1-28] | good activity | 100 | good activity | 100 | 
2.80 | Cc1cc(Br)cc(C2=NOCCN2)c1NC(=O)c1cc(C(F)(F)F)nn1-c1ncccc1Cl [Example I-1-29] | good activity | 100 | good activity | 100 | activity in the Myzus test, spray treatment (in words) [2]: good activity; Kill rate after 5d in % [2]: 100%
2.35 | Cc1cc(Br)cc(C2=NOCCN2)c1NC(=O)c1cc(Cl)nn1-c1ncccc1Cl [Example I-1-30] | good activity | 100 | good activity | 100 | activity in the Myzus test, spray treatment (in words) [2]: good activity; Kill rate after 5d in % [2]: 100%
